# Laboratory results published in ChEMBL document CHEMBL1201862, “PubChem BioAssay data set” (2004).
# The source made the active and inactive calls.
# Legend:
# [1] = biological target: T1, Histone-lysine N-methyltransferase NSD2 (Homo sapiens, UniProt O96028); type: biochemical
# T1 sequence (O96028 whole entry): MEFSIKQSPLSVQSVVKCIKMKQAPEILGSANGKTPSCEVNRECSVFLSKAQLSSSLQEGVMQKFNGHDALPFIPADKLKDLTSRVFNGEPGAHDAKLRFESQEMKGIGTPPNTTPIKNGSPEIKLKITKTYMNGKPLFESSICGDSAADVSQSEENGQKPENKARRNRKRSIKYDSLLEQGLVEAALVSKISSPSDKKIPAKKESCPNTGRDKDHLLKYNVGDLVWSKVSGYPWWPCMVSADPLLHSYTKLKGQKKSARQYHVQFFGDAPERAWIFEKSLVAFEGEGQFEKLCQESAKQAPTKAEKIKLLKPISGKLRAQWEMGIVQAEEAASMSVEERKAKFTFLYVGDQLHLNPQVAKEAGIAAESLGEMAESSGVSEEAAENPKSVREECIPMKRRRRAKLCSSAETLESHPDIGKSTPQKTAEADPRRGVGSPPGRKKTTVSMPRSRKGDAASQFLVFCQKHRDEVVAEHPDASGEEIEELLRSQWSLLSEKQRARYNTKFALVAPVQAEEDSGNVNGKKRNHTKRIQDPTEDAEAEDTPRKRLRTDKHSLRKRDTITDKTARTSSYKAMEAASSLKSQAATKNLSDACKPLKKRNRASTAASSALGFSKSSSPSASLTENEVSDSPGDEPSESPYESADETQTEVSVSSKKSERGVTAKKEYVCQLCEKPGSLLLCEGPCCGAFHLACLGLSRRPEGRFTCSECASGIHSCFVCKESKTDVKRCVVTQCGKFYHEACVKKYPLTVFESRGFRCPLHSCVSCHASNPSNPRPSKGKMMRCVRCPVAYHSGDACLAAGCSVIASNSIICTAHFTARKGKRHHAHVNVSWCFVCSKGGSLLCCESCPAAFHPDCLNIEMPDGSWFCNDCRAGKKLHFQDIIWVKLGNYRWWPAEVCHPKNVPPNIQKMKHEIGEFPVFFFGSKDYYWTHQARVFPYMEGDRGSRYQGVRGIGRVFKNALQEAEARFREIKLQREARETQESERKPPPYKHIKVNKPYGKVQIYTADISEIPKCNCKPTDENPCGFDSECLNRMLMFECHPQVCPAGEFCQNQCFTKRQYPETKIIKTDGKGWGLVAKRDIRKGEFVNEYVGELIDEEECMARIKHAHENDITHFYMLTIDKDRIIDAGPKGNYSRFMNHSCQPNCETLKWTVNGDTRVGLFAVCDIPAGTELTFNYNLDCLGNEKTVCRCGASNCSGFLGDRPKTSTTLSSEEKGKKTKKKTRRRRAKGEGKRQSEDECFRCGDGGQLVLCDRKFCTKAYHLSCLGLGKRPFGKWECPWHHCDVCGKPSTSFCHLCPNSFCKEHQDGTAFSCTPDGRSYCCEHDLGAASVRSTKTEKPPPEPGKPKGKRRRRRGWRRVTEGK
# [2] = loss of viability in HepG2 cells – cell-based, CellTiter-Glo, cherry-picked, cytotoxicity control for Shn3 inhibitor project, dose response (AID 624134); type: functional
# [3] = reduction of Shn3 3'UTR-driven luciferase in osteoblasts – cell-based, Clone20 osteoblasts, firefly luciferase, cherry-picked, dose response (AID 624132); type: functional;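 further: firefly luciferase luminescence from reporter carrying the Shn3 3'UTR in osteoblasts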
# [4] = system: HEK293; experiment: EBV LMP1 TES2 canonical NF-kB signalling blockers – cell-based, HEK293, luciferase, cherry-pick, dose response (AID 588343); type: functional; conditions: Homo sapiens
# [5] = non-specific 3'UTR reporter inhibition in Clone20-Shn3RL – cell-based, Renilla luciferase, cherry-picked, counter-screen for Shn3 inhibitor project, dose response (AID 624133); type: functional
# [6] = biological target: Cytochrome P450 3A4 (Homo sapiens, UniProt P08684);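 further: CYP3A4 tested as one member of a cytochrome P450 panel screen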
# Cytochrome P450 3A4, sequence (P08684 whole entry): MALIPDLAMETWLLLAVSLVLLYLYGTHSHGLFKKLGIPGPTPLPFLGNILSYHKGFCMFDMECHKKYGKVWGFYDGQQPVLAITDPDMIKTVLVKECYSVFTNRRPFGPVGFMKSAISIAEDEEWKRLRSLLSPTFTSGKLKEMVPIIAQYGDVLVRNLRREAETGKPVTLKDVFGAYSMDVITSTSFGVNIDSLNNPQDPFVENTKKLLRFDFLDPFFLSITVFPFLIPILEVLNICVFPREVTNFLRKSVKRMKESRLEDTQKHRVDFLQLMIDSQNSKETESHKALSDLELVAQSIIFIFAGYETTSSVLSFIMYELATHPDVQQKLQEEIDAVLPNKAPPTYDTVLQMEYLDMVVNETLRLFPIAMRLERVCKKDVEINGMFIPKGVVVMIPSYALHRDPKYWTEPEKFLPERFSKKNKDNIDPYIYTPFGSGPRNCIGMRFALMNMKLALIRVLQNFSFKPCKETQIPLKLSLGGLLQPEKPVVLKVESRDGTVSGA
# [7] = Trypanosoma cruzi growth suppression in host cells – NIH3T3 host cells, beta-gal luminescence, confirmation (AID 2044); type: functional, cell-based;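 further: intracellular parasites grown in NIH/3T3 mouse fibroblasts as host cells; luminescent beta-galactosidase reporter signal from transgenic T. cruzi replicating inside host cells; inhibitors lower the luminescence signal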
# [8] = fluconazole-exposed Candida albicans growth modulators – fluorescence, retest, confirmation (AID 2467); type: functional, cell-based
# [9] = NIH3T3 cell viability loss – ATP luminescence, mouse fibroblasts, counter-screen, dose response (AID 2010); type: functional, cell-based;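 further: cells exposed to compound for about 90 hours before reading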
# [10] = biological target: Large T antigen (Simian virus 40, UniProt P03070); type: functional, Betapolyomavirus macacae;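 further: Confirmatory-stage PubChem screen for compounds that inhibit SV40 T antigen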
# Large T antigen, sequence (P03070 whole entry): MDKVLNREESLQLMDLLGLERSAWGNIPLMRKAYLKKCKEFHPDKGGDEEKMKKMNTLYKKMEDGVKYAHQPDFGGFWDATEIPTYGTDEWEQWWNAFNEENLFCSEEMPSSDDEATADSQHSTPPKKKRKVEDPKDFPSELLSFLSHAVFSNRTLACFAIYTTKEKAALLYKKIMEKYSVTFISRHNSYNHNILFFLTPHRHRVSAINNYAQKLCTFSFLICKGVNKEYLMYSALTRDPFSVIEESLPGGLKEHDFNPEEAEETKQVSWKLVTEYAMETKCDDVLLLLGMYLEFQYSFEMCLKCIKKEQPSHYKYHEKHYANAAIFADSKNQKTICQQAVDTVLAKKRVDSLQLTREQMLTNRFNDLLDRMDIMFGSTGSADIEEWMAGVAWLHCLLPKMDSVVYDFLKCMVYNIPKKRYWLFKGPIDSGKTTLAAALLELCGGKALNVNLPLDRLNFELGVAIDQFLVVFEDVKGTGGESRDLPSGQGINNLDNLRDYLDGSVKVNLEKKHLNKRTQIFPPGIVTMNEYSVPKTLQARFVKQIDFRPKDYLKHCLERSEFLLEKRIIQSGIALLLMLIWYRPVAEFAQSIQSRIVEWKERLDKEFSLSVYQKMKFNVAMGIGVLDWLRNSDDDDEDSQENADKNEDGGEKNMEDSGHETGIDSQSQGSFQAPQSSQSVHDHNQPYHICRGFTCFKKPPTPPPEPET
# [11] = NIH-3T3 fibroblast cytotoxicity, dose response, cytotoxicity control, cell-based, fluorescence, Alamar Blue, secondary assay (AID 2327); type: functional;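 further: NIH-3T3 mouse fibroblasts cultured with fluconazole at 8 µg/mL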
# [12] = biological target: T2, Carboxy-terminal domain RNA polymerase II polypeptide A small phosphatase 1 (Homo sapiens, UniProt Q9GZU7); experiment: CTDSP1 inhibitors, concentration-response, biochemical, absorbance readout, ultra-high-throughput screen actives (AID 540297); type: functional
# T2 sequence (Q9GZU7 whole entry): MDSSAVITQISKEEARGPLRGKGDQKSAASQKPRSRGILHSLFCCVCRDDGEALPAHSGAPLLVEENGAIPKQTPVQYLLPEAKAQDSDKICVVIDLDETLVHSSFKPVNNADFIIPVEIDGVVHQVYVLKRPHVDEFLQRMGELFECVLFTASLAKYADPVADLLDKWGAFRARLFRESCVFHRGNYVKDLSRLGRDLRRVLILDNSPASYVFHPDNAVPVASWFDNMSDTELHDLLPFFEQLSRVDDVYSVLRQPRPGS
# [13] = biological target: T3, RNA-binding protein pos-1 (Caenorhabditis elegans, UniProt G5EF15); experiment: disruptors of C. elegans POS-1 RNA interaction – biochemical, fluorescence polarization, dose response (AID 1964);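 further: purified POS-1 fused to maltose binding protein made in E. coli; potency of compounds blocking POS-1 binding to fluorescent RNA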
# T3 sequence (G5EF15 whole entry): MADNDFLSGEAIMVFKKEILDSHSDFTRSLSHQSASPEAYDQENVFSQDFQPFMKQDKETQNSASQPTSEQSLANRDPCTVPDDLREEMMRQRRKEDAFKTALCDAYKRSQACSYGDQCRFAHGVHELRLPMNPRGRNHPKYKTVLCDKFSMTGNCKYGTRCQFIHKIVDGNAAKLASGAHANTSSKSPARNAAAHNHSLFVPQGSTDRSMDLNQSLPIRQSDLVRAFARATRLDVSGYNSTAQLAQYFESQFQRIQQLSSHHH
# [14] = system: Streptococcus; experiment: GAS UMAA2166 growth inhibition – luminescence, BacTiterGlo, counter-screen for streptokinase expression inhibitor project, dose response (AID 1915); type: functional, organism-based;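 further: potency for reduction of bacterial viability or growth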
# [15] = system: Streptococcus sp. 'group A'; experiment: Streptococcus pyogenes SK(-)GAS viability under kanamycin – luminescence, BacTiterGlo, confirmation, counter-screen for streptokinase expression inhibitor project, dose response (AID 1900); type: functional, organism-based
# [16] = biological target: T4, Zinc finger protein mex-5 (Caenorhabditis elegans, UniProt Q9XUB2); experiment: potency of MEX-5 RNA-binding blockers – biochemical, C. elegans, fluorescence polarization, dose response (AID 1960)
# T4 sequence (Q9XUB2 whole entry): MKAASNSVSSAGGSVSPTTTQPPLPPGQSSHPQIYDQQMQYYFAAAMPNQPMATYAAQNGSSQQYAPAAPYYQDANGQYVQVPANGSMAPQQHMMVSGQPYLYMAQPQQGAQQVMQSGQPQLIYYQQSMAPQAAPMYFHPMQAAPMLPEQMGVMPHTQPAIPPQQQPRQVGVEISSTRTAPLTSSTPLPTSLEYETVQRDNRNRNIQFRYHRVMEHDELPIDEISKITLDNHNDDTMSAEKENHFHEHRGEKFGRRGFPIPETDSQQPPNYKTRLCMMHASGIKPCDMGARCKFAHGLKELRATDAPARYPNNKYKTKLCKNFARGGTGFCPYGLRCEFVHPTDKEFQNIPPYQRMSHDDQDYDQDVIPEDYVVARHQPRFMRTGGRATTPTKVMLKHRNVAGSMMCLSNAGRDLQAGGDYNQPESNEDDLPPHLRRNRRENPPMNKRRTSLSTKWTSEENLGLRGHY
# [17] = biological target: FAD-linked sulfhydryl oxidase ALR (Homo sapiens, UniProt P55789); experiment: ALR-catalysed DTT oxidation blockers – biochemical, H2O2 detection, luminescence, cherry-pick, dose response (AID 493248)
# FAD-linked sulfhydryl oxidase ALR, sequence (P55789 whole entry): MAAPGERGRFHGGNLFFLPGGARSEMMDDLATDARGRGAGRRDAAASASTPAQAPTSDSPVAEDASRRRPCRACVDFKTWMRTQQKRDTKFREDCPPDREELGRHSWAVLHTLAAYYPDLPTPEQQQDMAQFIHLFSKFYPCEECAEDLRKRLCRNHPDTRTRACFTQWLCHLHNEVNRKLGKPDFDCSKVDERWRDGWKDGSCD
# [18] = biological target: T5, Streptokinase A (Streptococcus pyogenes serotype M1, UniProt P10520); experiment: viability-normalized secreted streptokinase activity reduction – plasminogen activation absorbance, OD405, dose response (AID 1914); type: functional, Streptococcus pyogenes M1 GAS;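 further: secreted streptokinase activity via plasminogen activation per viability signal from cell pellet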
# T5 sequence (P10520 whole entry): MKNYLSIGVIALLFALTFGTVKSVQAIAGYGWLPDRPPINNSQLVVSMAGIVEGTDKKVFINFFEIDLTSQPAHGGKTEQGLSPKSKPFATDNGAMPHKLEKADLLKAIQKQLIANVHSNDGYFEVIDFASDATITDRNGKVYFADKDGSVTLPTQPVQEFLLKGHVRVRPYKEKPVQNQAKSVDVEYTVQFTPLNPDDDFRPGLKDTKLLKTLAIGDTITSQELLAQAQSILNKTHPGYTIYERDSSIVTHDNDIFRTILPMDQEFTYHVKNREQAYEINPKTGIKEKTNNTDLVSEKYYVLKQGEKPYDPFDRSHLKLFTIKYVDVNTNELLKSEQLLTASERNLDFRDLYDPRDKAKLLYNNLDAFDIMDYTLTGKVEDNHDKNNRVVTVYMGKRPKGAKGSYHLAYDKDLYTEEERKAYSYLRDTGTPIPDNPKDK
# [19] = microbe, parasite or virus in culture; type: functional; conditions: Mycobacterium tuberculosis
structure (smiles),measurement,setting,value
NC(=O)C1CCN(C2=C(NS(=O)(=O)c3ccc(Cl)cc3)C(=O)c3ccccc3C2=O)CC1,AC50,[1],14.1 µM (active)
O=S(=O)(c1ccccc1)N1CCN(c2cc(-c3ccccc3)nc3ncnn23)CC1,AC50,[2],48.1 µM (active)
same,AC50,[3],1.12 µM (active)
same,AC50,[4],3.23 µM (active)
same,AC50,[5],5.98 µM (active)
same,AC50,[6],14.1 µM (inconclusive)
CCC[n+]1c2ccccc2cc2ccccc21,EC50,[7],157 nM (active)
same,EC50,[8],672 nM (active)
same,EC50,[9],> 60 µM (not active)
same,IC50,[10],46.2 µM (active)
same,EC50,[11],> 160 µM (inactive)
CCN1CCCCC(=N/O)/C(=N/O)CCCC1,AC50,[1],> 20 µM (inactive)
O=C(/C=C/c1ccco1)NCC(=O)N/N=C/c1ccc([N+](=O)[O-])cc1,IC50,[12],5.25 µM (active)
N=C1/C(=C\c2ccc(Br)o2)C(=O)N=C2SC(CC(=O)N3CCOCC3)=NN12,AC50,[1],> 20 µM (inactive)
same,IC50,[12],18.3 µM (active)
C(=N\c1ccc(Nc2ccccc2)cc1)/c1ccc2ccccc2c1,IC50,[10],8.25 µM (active)
N#Cc1ccccc1CN1C(=O)S/C(=C/c2cccn2-c2ccc(C(=O)O)cc2)C1=O,EC50,[13],> 300 µM (not active)
same,EC50,[14],61.7 µM (active)
same,EC50,[15],15.8 µM (active)
same,IC50,[12],5.85 µM (active)
same,EC50,[16],44 µM (active)
same,AC50,[17],86.3 µM (active)
same,EC50,[18],> 150 µM (not active)
C=CCn1c(=O)/c(=C/c2ccc(Cl)cc2)s/c1=C(/C#N)c1nnc2n1CCCCC2,CC50,[19],40 µM (active)
Cc1ccc(NC(=O)C2CCN(S(=O)(=O)c3ccc4c(c3)NC(=O)C(C)S4)CC2)c(Cl)c1 (stereo not given),CC50,[19],> 40 µM (active)
